Experimental data as given in ChEMBL document CHEMBL1932949, “Novel indoleamine 2,3-dioxygenase-1 inhibitors from a multistep in silico screen” (Bioorg Med Chem, 2012).

Test system: not listed separately
Experiment: Dissociation constant, pKa of the compound
Type: physicochemical
Conditions: not given
For `CSC(=N)N`, the pKa was 9.83.

Target: T1, Indoleamine 2,3-dioxygenase 1 (Homo sapiens, UniProt P14902)
Experiment: Inhibition of His-tagged recombinant human IDO1 expressed in Escherichia coli using tryptophan as substrate by Ehrlich's method
Conditions: not given
Target sequence in this assay (P14902 whole entry): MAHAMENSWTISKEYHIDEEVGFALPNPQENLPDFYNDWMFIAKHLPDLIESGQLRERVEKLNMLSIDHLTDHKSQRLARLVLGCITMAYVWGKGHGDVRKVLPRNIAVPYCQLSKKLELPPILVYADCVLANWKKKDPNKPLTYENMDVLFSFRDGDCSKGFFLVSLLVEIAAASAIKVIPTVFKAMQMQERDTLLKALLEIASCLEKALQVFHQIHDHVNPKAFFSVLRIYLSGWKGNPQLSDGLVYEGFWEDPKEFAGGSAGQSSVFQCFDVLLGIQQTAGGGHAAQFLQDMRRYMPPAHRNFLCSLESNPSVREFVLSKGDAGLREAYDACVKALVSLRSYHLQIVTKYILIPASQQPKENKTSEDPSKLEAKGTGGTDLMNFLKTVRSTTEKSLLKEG
Work on `NC(=NOC(=O)c1ccccc1Cl)c1cccc(CS(=O)(=O)c2ccc(Cl)cc2)c1` yielded an IC50 of 60 µM.
With `Cc1nnsc1C(=O)O/N=C(/N)COc1ccc(C2SCCS2)cc1` the IC50 was 50 µM.
Work on `N=C(NOC(=O)c1cc2ccccc2oc1=O)c1ccc(Oc2ccc(C(F)(F)F)cc2[N+](=O)[O-])cc1` yielded an IC50 of 20 µM.

Target: T1, Indoleamine 2,3-dioxygenase 1
Experiment: Inhibition of IDO1
Conditions: not given
Target sequence in this assay (P14902 whole entry): as above
`Cc1[nH]ccc2c1[nH]c1cc(=O)ccc12` [HARMOL] showed an IC50 of 2000 µM.

Target: T1, Indoleamine 2,3-dioxygenase 1
Conditions: at 200 µM
Target sequence in this assay (P14902 whole entry, looked up): as the sequence (P14902 whole entry) above
Description: Inhibition of His-tagged recombinant human IDO1 expressed in Escherichia coli using tryptophan as substrate at 200 uM by spectrophotometric analysis
For `OC1(c2ccc(Cl)cc2)CCN(Cn2nnc3ccccc32)CC1`, the inhibition was 0%.
`O=c1[nH]nc2n1-c1ccccc1SC2` showed an inhibition of 0%.
For `N/C(=N/OC(=O)c1cc2ccccc2oc1=O)c1ccc(Oc2ccc(C(F)(F)F)cc2[N+](=O)[O-])cc1`, the inhibition was 70%.
Molecule `CN1CCN(C(=O)c2nccnc2C(=O)O)CC1` has an inhibition of 0%.
Work on `S=C1N2CCN=C2SC2=NCCN12` yielded an inhibition of 0%.
With `Cn1c(S)nnc1-c1ccc(Cl)cc1` the inhibition was 0%.
Molecule `Nc1ccc2c(c1)N1CCN=C1S2` has an inhibition of 70%.
`CCOC(=O)N1CCN(CC(O)Cn2c(=O)c3c(ncn3C)n(C)c2=O)CC1` (stereo not given) gave an inhibition of 0%.
For `O=c1c2ccccc2nc2ccccn12`, the inhibition was 0%.
With `O[C@@H](CNCCNc1nccc(C(F)(F)F)n1)CSc1ccc(F)cc1` the inhibition was 0%.
For `N/C(=N\OC(=O)c1ccccc1Cl)c1cccc(CS(=O)(=O)c2ccc(Cl)cc2)c1`, the inhibition was 70%.
With `Sc1nnc2nnc3ccccc3n12` the inhibition was 0%.
`Cc1nnsc1C(=O)O/N=C(/N)COc1ccc(C2SCCS2)cc1` showed an inhibition of 70%.
Work on `CN(C)CCCNc1cccc(Cl)c1C#N` yielded an inhibition of 0%.
With `Cc1cc2nnc(/C(N)=N/O)c(C)n2n1` the inhibition was 0%.
`N/C(CS(=O)(=O)c1ccccc1)=N\O` gave an inhibition of 0%.
`N/C(=N\OS(=O)(=O)c1ccc(Cl)cc1)c1ccc(C(F)(F)F)cc1` showed an inhibition of 0%.
`O=c1nc2sccn2c2ncccc12` showed an inhibition of 0%.

Target: T1, Indoleamine 2,3-dioxygenase 1
Experiment: Inhibition of His-tagged recombinant human IDO1 expressed in Escherichia coli using tryptophan as substrate by HPLC analysis
Conditions: not given
Target sequence in this assay (P14902 whole entry): as above
`Nc1ccc2c(c1)N1CCN=C1S2` gave an IC50 of 50 µM.

Target: T1, Indoleamine 2,3-dioxygenase 1
Experiment: Inhibition of His-tagged recombinant human IDO1 expressed in Escherichia coli using tryptophan as substrate at 100 uM by spectrophotometric analysis
Conditions: not given
Target sequence in this assay (P14902 whole entry, looked up): as the sequence (P14902 whole entry) above
`Nc1cc2ccccc2cc1C(=O)O` showed an inhibition of 74%.

Target: T1, Indoleamine 2,3-dioxygenase 1
Experiment: Inhibition of His-tagged recombinant human IDO1 expressed in Escherichia coli using tryptophan as substrate by spectrophotometric analysis
Conditions: not given
Target sequence in this assay (P14902 whole entry): as above
`O=C(O)c1cc2ccccc2cc1O` gave an IC50 of 1000 µM.
With `c1ccc2c(c1)[nH]c1cnccc12` [NORHARMANE] the IC50 was 90 µM.
Molecule `COC(=O)c1cc2ccccc2cc1N` has an IC50 of 460 µM.
Molecule `Nc1cc2ccccc2cc1CO` has an IC50 of 190 µM.
Work on `Nc1cc2ccccc2cc1C(=O)O` yielded an IC50 of 15 µM.
